US20240425479A1, “HALO-SUBSTITUTED AMINO AZA-HETEROARYL COMPOUNDS AS INHIBITORS OF THE HAEMATOPOIETIC PROGENITOR KINASE 1 (HPK1)” (priority 2021, published 2024)

Target: T1, Recombinant (1-346) HPK1 (h) (Homo sapiens, UniProt Q92918)
T1 construct: Recombinant (1-346) HPK1 (h) is incubated with 8 mM MOPS pH 7.0
T1 sequence (Q92918 1-346): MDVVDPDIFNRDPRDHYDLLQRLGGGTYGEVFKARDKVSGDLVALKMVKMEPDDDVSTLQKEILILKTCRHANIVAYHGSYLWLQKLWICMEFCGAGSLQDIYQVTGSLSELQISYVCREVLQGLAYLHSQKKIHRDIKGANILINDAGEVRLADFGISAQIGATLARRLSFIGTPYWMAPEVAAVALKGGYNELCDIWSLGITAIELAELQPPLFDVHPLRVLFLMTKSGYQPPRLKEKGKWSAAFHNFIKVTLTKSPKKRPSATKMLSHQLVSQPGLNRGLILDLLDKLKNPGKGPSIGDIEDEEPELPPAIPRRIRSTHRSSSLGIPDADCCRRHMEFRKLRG
Test: HPK1 human STE kinase enzymatic radiometric assay
Assay type: biochemical
Conditions: read-out: HPK1 IC50 nM Range
Summary of the method: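 Recombinant HPK1 (1-346) incubated 40 min at RT with 0.33 mg/mL myelin basic protein and [gamma-33P]-ATP in 8 mM MOPS pH 7.0, 0.2 mM EDTA, 10 mM Mg acetate; reaction started with Mg/ATP. Stopped with 0.5% phosphoric acid, spotted on P30 filtermat, washed, scintillation counted. Compounds tested as 9-point 3-fold dilutions.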

Row | IC50 [nM] | SMILES
1 | 0.1 to 10 | Nc1nc(F)c(-c2ccc(N3CCOCC3)c(CN3CCC3)c2)nc1-c1ccc2c(c1)CCNC2=O [Example I-144, 6-(3-amino-6-(3-(azetidin-1-ylmethyl)-4-morpholinophenyl)-5-fluoropyrazin-2-yl)-3,4-dihydroisoquinolin-1(2H)-one]
2 | 0.1 to 10 | CO[C@@H]1CCN(Cc2cc(-c3nc(-c4ccc5c(c4)CCNC5=O)c(N)nc3F)ccc2N2CCOCC2)C1 [Example I-151, (R)-6-(3-amino-5-fluoro-6-(3-((3-methoxypyrrolidin-1-yl)methyl)-4-morpholinophenyl)pyrazin-2-yl)-3,4-dihydroisoquinolin-1(2H)-one]
3 | 0.1 to 10 | CN(C)Cc1cc(-c2nc(-c3ccc4c(=O)[nH]cc(Cl)c4c3)c(N)nc2F)ccc1N1CCOCC1 [Example I-153, 6-(3-amino-6-(3-((dimethylamino)methyl)-4-morpholinophenyl)-5-fluoropyrazin-2-yl)-4-chloroisoquinolin-1(2H)-one]
4 | 0.1 to 10 | CO[C@H]1CCN(Cc2cc(-c3nc(-c4ccc5c(c4)CCNC5=O)c(N)nc3F)ccc2N2CCOCC2)C1 [Example I-156, (S)-6-(3-amino-5-fluoro-6-(3-((3-methoxypyrrolidin-1-yl)methyl)-4-morpholinophenyl)pyrazin-2-yl)-3,4-dihydroisoquinolin-1(2H)-one]
5 | 0.1 to 10 | COCCN(C)Cc1cc(-c2nc(-c3ccc4c(c3)CCNC4=O)c(N)nc2F)ccc1N1CCOCC1 [Example I-160, 6-(3-amino-5-fluoro-6-(3-(((2-methoxyethyl)(methyl)amino)methyl)-4-morpholinophenyl)pyrazin-2-yl)-3,4-dihydroisoquinolin-1(2H)-one]
6 | 0.1 to 10 | COCCN(C)Cc1cc(-c2nc(-c3cc4c(cc3F)C(=O)NCC4)c(N)nc2F)ccc1N1CCOCC1 [Example I-161, 6-(3-amino-5-fluoro-6-(3-(((2-methoxyethyl)(methyl)amino)methyl)-4-morpholinophenyl)pyrazin-2-yl)-7-fluoro-3,4-dihydroisoquinolin-1(2H)-one]
7 | 0.1 to 10 | COCCN(C)Cc1cc(-c2nc(-c3cc(F)c4c(c3)CCNC4=O)c(N)nc2F)ccc1N1CCOCC1 [Example I-162, 6-(3-amino-5-fluoro-6-(3-(((2-methoxyethyl)(methyl)amino)methyl)-4-morpholinophenyl)pyrazin-2-yl)-8-fluoro-3,4-dihydroisoquinolin-1(2H)-one]
8 | 0.1 to 10 | Cc1c[nH]c(=O)c2c(F)cc(-c3nc(-c4ccc(C5CCOCC5)c(CN(C)C)c4)c(F)nc3N)cc12 [Example I-167, 6-(3-amino-6-(3-((dimethylamino)methyl)-4-(tetrahydro-2H-pyran-4-yl)phenyl)-5-fluoropyrazin-2-yl)-8-fluoro-4-methylisoquinolin-1(2H)-one]
9 | 0.1 to 10 | C[C@@H]1CN(c2ccc(-c3nc(-c4cc(F)c5c(c4)CCNC5=O)c(N)nc3F)cc2CN(C)C)CCO1 [Example I-177, (R)-6-(3-amino-6-(3-((dimethylamino)methyl)-4-(2-methylmorpholino)phenyl)-5-fluoropyrazin-2-yl)-8-fluoro-3,4-dihydroisoquinolin-1(2H)-one]

The remaining lines, values behind:

Row | SMILES | IC50 [nM]
10 | Nc1nc(F)c(-c2ccc(C3CCOCC3)c(CN3CCCC3)c2)nc1-c1ccc2c(c1)CCNC2=O [Example I-147, 6-(3-amino-5-fluoro-6-(3-(pyrrolidin-1-ylmethyl)-4-(tetrahydro-2H-pyran-4-yl)phenyl)pyrazin-2-yl)-3,4-dihydroisoquinolin-1(2H)-one] | 0.1 to 10
11 | Nc1nc(F)c(-c2ccc(C3CCOCC3)c(CN3CCCC3)c2)nc1-c1cc(F)c2c(c1)CCNC2=O [Example I-149, 6-(3-amino-5-fluoro-6-(3-(pyrrolidin-1-ylmethyl)-4-(tetrahydro-2H-pyran-4-yl)phenyl)pyrazin-2-yl)-8-fluoro-3,4-dihydroisoquinolin-1(2H)-one] | 0.1 to 10
12 | CC1NC(=O)c2c(F)cc(-c3nc(-c4ccc(N5CCN(C6CCC6)CC5)cc4)c(F)nc3N)cc2C1(F)F (centres unmarked) [Example I-150, 6-(3-amino-6-(4-(4-cyclobutylpiperazin-1-yl)phenyl)-5-fluoropyrazin-2-yl)-4,4,8-trifluoro-3-methyl-3,4-dihydroisoquinolin-1(2H)-one] | 11 to 100
13 | CO[C@@H]1CCN(Cc2cc(-c3nc(-c4cc5c(cc4F)C(=O)NCC5)c(N)nc3F)ccc2N2CCOCC2)C1 [Example I-152, (R)-6-(3-amino-5-fluoro-6-(3-((3-methoxypyrrolidin-1-yl)methyl)-4-morpholinophenyl)pyrazin-2-yl)-7-fluoro-3,4-dihydroisoquinolin-1(2H)-one] | 0.1 to 10
14 | CO[C@@H]1CCN(Cc2cc(-c3nc(-c4cc(F)c5c(c4)CCNC5=O)c(N)nc3F)ccc2N2CCOCC2)C1 [Example I-155, (R)-6-(3-amino-5-fluoro-6-(3-((3-methoxypyrrolidin-1-yl)methyl)-4-morpholinophenyl)pyrazin-2-yl)-8-fluoro-3,4-dihydroisoquinolin-1(2H)-one] | 0.1 to 10
15 | CO[C@H]1CCN(Cc2cc(-c3nc(-c4cc5c(cc4F)C(=O)NCC5)c(N)nc3F)ccc2N2CCOCC2)C1 [Example I-157, (S)-6-(3-amino-5-fluoro-6-(3-((3-methoxypyrrolidin-1-yl)methyl)-4-morpholinophenyl)pyrazin-2-yl)-7-fluoro-3,4-dihydroisoquinolin-1(2H)-one] | 0.1 to 10
16 | CO[C@H]1CCN(Cc2cc(-c3nc(-c4cc(F)c5c(c4)CCNC5=O)c(N)nc3F)ccc2N2CCOCC2)C1 [Example I-158, (S)-6-(3-amino-5-fluoro-6-(3-((3-methoxypyrrolidin-1-yl)methyl)-4-morpholinophenyl)pyrazin-2-yl)-8-fluoro-3,4-dihydroisoquinolin-1(2H)-one] | 0.1 to 10
17 | Cc1cc2cc(-c3nc(-c4ccc(N5CCN(CCCC(F)F)CC5)cc4)c(F)nc3N)cc(F)c2c(=O)[nH]1 [Example I-159, 6-(3-amino-6-(4-(4-(4,4-difluorobutyl)piperazin-1-yl)phenyl)-5-fluoropyrazin-2-yl)-8-fluoro-3-methylisoquinolin-1(2H)-one] | 0.1 to 10
18 | CCN(C)Cc1cc(-c2nc(-c3ccc4c(c3)CCNC4=O)c(N)nc2F)ccc1C1CCOCC1 [Example I-163, 6-(3-amino-6-(3-((ethyl(methyl)amino)methyl)-4-(tetrahydro-2H-pyran-4-yl)phenyl)-5-fluoropyrazin-2-yl)-3,4-dihydroisoquinolin-1(2H)-one] | 0.1 to 10
19 | Cc1c[nH]c(=O)c2c(F)cc(-c3nc(-c4ccc(N5CCN(C(C)C)CC5)cc4)c(F)nc3N)cc12 [Example I-166, 6-(3-amino-5-fluoro-6-(4-(4-isopropylpiperazin-1-yl)phenyl)pyrazin-2-yl)-8-fluoro-4-methylisoquinolin-1(2H)-one] | 0.1 to 10
20 | Cc1[nH]c(=O)c2cc(F)c(-c3nc(-c4ccc(N5CCN(C(C)C)CC5)cc4)c(F)nc3N)cc2c1F [Example I-168, 6-(3-amino-5-fluoro-6-(4-(4-isopropylpiperazin-1-yl)phenyl)pyrazin-2-yl)-4,7-difluoro-3-methylisoquinolin-1(2H)-one] | 0.1 to 10
21 | Nc1nc(F)c(-c2ccc(C3CCOCC3)c(CN3CCC3)c2)nc1-c1ccc2c(c1)CCNC2=O [Example I-169, 6-(3-amino-6-(3-(azetidin-1-ylmethyl)-4-(tetrahydro-2H-pyran-4-yl)phenyl)-5-fluoropyrazin-2-yl)-3,4-dihydroisoquinolin-1(2H)-one] | 0.1 to 10
22 | COCCN(C)Cc1cc(-c2nc(-c3ccc4c(c3)CCNC4=O)c(N)nc2F)ccc1C1CCOCC1 [Example I-174, 6-(3-amino-5-fluoro-6-(3-(((2-methoxyethyl)(methyl)amino)methyl)-4-(tetrahydro-2H-pyran-4-yl)phenyl)pyrazin-2-yl)-3,4-dihydroisoquinolin-1(2H)-one] | 0.1 to 10
23 | COCCN(C)Cc1cc(-c2nc(-c3cc4c(cc3F)C(=O)NCC4)c(N)nc2F)ccc1C1CCOCC1 [Example I-175, 6-(3-amino-5-fluoro-6-(3-(((2-methoxyethyl)(methyl)amino)methyl)-4-(tetrahydro-2H-pyran-4-yl)phenyl)pyrazin-2-yl)-7-fluoro-3,4-dihydroisoquinolin-1(2H)-one] | 0.1 to 10
24 | COCCN(C)Cc1cc(-c2nc(-c3cc(F)c4c(c3)CCNC4=O)c(N)nc2F)ccc1C1CCOCC1 [Example I-176, 6-(3-amino-5-fluoro-6-(3-(((2-methoxyethyl)(methyl)amino)methyl)-4-(tetrahydro-2H-pyran-4-yl)phenyl)pyrazin-2-yl)-8-fluoro-3,4-dihydroisoquinolin-1(2H)-one] | 0.1 to 10
25 | CN(C)Cc1cc(-c2nc(-c3ccc4c(c3)CCNC4=O)c(N)nc2F)ccc1OCC1CCOCC1 [Example I-178, 6-(3-amino-6-(3-((dimethylamino)methyl)-4-((tetrahydro-2H-pyran-4-yl)methoxy)phenyl)-5-fluoropyrazin-2-yl)-3,4-dihydroisoquinolin-1(2H)-one] | 0.1 to 10
26 | CN(C)Cc1cc(-c2nc(-c3cc4c(cc3F)C(=O)NCC4)c(N)nc2F)ccc1OCC1CCOCC1 [Example I-179, 6-(3-amino-6-(3-((dimethylamino)methyl)-4-((tetrahydro-2H-pyran-4-yl)methoxy)phenyl)-5-fluoropyrazin-2-yl)-7-fluoro-3,4-dihydroisoquinolin-1(2H)-one] | 0.1 to 10
